From patent US4468511A, “C-20- And C-23-Modified macrolide derivatives” (Eli Lilly and Company, priority 1983, dated 1984)
In brackets after ≈: the same amount, converted by molar mass. Like-named read-outs stand apart in the source and are kept apart here.

Legend:
[1] = tested on: Mycoplasma gallisepticum 41313; assay: MIC, conventional broth-dilution microtiter test; assay type: cell-based; conditions: Mycoplasmoides gallisepticum, 41313
Summary of the method: (§1)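 MICs for the two Pasteurella strains and the Mycoplasma strain were read from a broth-dilution microtiter test. The Klebsiella strain was tested on agar instead.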

Staphylococcus aureus = assay: MIC, conventional broth-dilution microtiter test; assay type: cell-based
Method: (§2) Certain of the derivatives are active against some gram-negative bacteria, such as Pasteurella species. The MIC's in Table II were determined by standard agar-dilution assays. The MIC's in Table III were obtained using a conventional broth-dilution microtiter test.

Mycoplasma synoviae = assay: MIC, conventional broth-dilution microtiter test; assay type: cell-based; conditions: Mycoplasmopsis synoviae
Summary of the method: (§3)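 Two formats were used. Broth dilution in microtiter plates served for Pasteurella and Mycoplasma, while agar dilution served for Klebsiella.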

[2] = tested on: Pasteurella multocida 60A; assay: MIC, conventional broth-dilution microtiter test; assay type: cell-based; conditions: Pasteurella multocida, 60A
Summary of the method: as §1

[3] = tested on: Pasteurella hemolytica 22C; assay: MIC, conventional broth-dilution microtiter test; assay type: cell-based; conditions: Pasteurella, 22C
Summary of the method: as §1

[4] = tested on: Pasteurella multocida 22A; assay: MIC, conventional broth-dilution microtiter test; assay type: cell-based; conditions: Pasteurella multocida, 22A
Summary of the method: as §1

Mycoplasma hyorhinis = assay: MIC, conventional broth-dilution microtiter test; assay type: cell-based; conditions: Mycoplasma
Summary of the method: as §3

Mycoplasma gallisepticum = assay: MIC, conventional broth-dilution microtiter test; assay type: cell-based; conditions: Mycoplasmoides gallisepticum
Summary of the method: as §1

[5] = tested on: Pasteurella hemolytica 41D; assay: MIC, conventional broth-dilution microtiter test; assay type: cell-based; conditions: Pasteurella, 41D
Summary of the method: as §1

[6] = tested on: Mycoplasma gallisepticum 34159; assay: MIC, conventional broth-dilution microtiter test; assay type: cell-based; conditions: Mycoplasmoides gallisepticum, 34159
Summary of the method: as §1

Streptococcus sp. 80 = assay: MIC, conventional broth-dilution microtiter test; assay type: cell-based; conditions: Streptococcus, SP.80
Method: as §2

[7] = tested on: Pasteurella hemolytica 23C; assay: MIC, conventional broth-dilution microtiter test; assay type: cell-based; conditions: Pasteurella, 23C
Summary of the method: as §1

[8] = tested on: Pasteurella multocida 40G; assay: MIC, conventional broth-dilution microtiter test; assay type: cell-based; conditions: Pasteurella multocida, 40G
Summary of the method: as §1

[9] = tested on: Pasteurella multocida 17E; assay: MIC, conventional broth-dilution microtiter test; assay type: cell-based; conditions: Pasteurella multocida, 17E
Summary of the method: as §1

[10] = tested on: Pasteurella multocida 68C; assay: MIC, conventional broth-dilution microtiter test; assay type: cell-based; conditions: Pasteurella multocida, 68C
Summary of the method: as §1

[11] = tested on: Haemophilus influenzae C.L.; assay: MIC, standard agar-dilution assay; assay type: cell-based; conditions: Haemophilus influenzae
Method: (§4) The MIC's in Table II were determined by standard agar-dilution assays. The MIC's in Table III were obtained using a conventional broth-dilution microtiter test.

[12] = tested on: Haemophilus influenzae 76; assay: MIC, standard agar-dilution assay; assay type: cell-based; conditions: Haemophilus influenzae, 76
Method: as §4

[13] = tested on: Staphylococcus epidermidis EPI2; assay: MIC, standard agar-dilution assay; assay type: cell-based; conditions: Staphylococcus epidermidis, EPI2
Method: as §4

[14] = tested on: Staphylococcus aureus X400; assay: MIC, standard agar-dilution assay; assay type: cell-based; conditions: Staphylococcus aureus, X400
Method: as §4

[15] = tested on: Staphylococcus aureus S13E; assay: microbe, parasite or virus in culture; assay type: cell-based
Method: as §4

[16] = tested on: Staphylococcus epidermidis EPI1; assay: microbe, parasite or virus in culture; assay type: cell-based; conditions: Staphylococcus epidermidis, EPI1
Method: as §4

[17] = tested on: Klebsiella pneumoniae X26; assay: MIC, standard agar-dilution assay; assay type: cell-based; conditions: Klebsiella pneumoniae, X26
Summary of the method: as §3

[18] = tested on: Streptococcus pyogenes 9960; assay: MIC, standard agar-dilution assay; assay type: cell-based; conditions: 9960
Method: as §2

[19] = tested on: Streptococcus pneumoniae Park I; assay: MIC, standard agar-dilution assay; assay type: cell-based; conditions: Streptococcus pneumoniae
Method: as §2

[20] = tested on: Streptococcus Group D X66; assay: MIC, standard agar-dilution assay; assay type: cell-based
Method: as §2

[21] = tested on: Staphylococcus aureus X1.1; assay: MIC, standard agar-dilution assay; assay type: cell-based; conditions: Staphylococcus aureus, X1.1
Summary of the method: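 A standard agar-dilution assay was used to test compounds against the Staphylococcus aureus isolate X1.1. Bacterial growth on agar with different compound concentrations was assessed, and the minimum inhibitory concentration was recorded in ug/mL.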

Escherichia coli EC14 = assay: MIC, standard agar-dilution assay; assay type: cell-based; conditions: Escherichia coli, EC14
Method: as §2

[22] = tested on: Staphylococcus aureus V41; assay: MIC, standard agar-dilution assay; assay type: cell-based; conditions: Staphylococcus aureus, V41
Method: as §2

[23] = tested on: Klebsiella pneumoniae KAE; assay: MIC, standard agar-dilution assay; assay type: cell-based; conditions: Klebsiella pneumoniae
Summary of the method: as §1

Escherichia coli TEM = assay: MIC, standard agar-dilution assay; assay type: cell-based; conditions: Escherichia coli
Summary of the method: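 Antibacterial activity toward the gram-negative organism Escherichia coli was assessed by conventional agar dilution. The MIC, reported in ug/mL, is the minimum compound concentration on agar that prevents growth.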

[24] = tested on: Streptococcus pyogenes C203; assay: MIC, standard agar-dilution assay; assay type: cell-based; conditions: Streptococcus pyogenes, C203
Method: as §2

[25] = tested on: Streptococcus pyogenes C203; assay: Protection of mice experimentally infected with S. pyogenes C203; assay type: in vivo;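 further: two doses given 1 and 4 hours after infection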
Method: Some of the derivatives of this invention have shown in vivo antimicrobial activity against experimentally-induced infections in laboratory animals. When two doses of test compound were administered to mice experimentally infected with S. pyogenes C203, the activity observed was measured as an ED50 value [effective dose in mg/kg to protect 50% of the test animals: see Warren Wick, et al., J. Bacteriol. 81, 233-235 (1961)].

SMILES: CCC1CC(C)C(=O)C=CC(C)=CC(COC(=O)Cc2ccccc2)C(CC)OC(=O)CC(O)C(C)C1OC1OC(C)C(O)C(N(C)C)C1O (stereo not drawn) [Compound 41, 23-O-Phenylacetyl-20-deoxy-20-dihydro-OMT]
- MIC [1]: 50 µg/mL (≈ 71.2 µM)
- MIC (Staphylococcus aureus): 0.78 µg/mL (≈ 1.11 µM)
- MIC (Mycoplasma synoviae): 3.12 µg/mL (≈ 4.45 µM)
- MIC [2]: 3.12 µg/mL (≈ 4.45 µM)
- MIC [3]: 12.5 µg/mL (≈ 17.8 µM)
- MIC [4]: 25 µg/mL (≈ 35.6 µM)
- MIC (Mycoplasma hyorhinis): 50 µg/mL (≈ 71.2 µM)
- MIC (Mycoplasma gallisepticum): 3.12 µg/mL (≈ 4.45 µM)
- MIC [5]: 12.5 µg/mL (≈ 17.8 µM)
- MIC [6]: 50 µg/mL (≈ 71.2 µM)
- MIC (Streptococcus sp. 80): 1.56 µg/mL (≈ 2.22 µM)
- MIC [7]: 12.5 µg/mL (≈ 17.8 µM)
- MIC [8]: 12.5 µg/mL (≈ 17.8 µM)
- MIC [9]: 12.5 µg/mL (≈ 17.8 µM)
- MIC [10]: 3.12 µg/mL (≈ 4.45 µM)
- MIC [11]: 8 µg/mL (≈ 11.4 µM)
- MIC [12]: 8 µg/mL (≈ 11.4 µM)
- MIC [13]: 0.5 µg/mL (≈ 0.712 µM)
- MIC [14]: 0.5 µg/mL (≈ 0.712 µM)
- MIC [15]: 0.5 µg/mL (≈ 0.712 µM)
- MIC [16]: 0.5 µg/mL (≈ 0.712 µM)
- MIC [17]: 4 µg/mL (≈ 5.7 µM)
- MIC [18]: 1 µg/mL (≈ 1.42 µM)
- MIC [19]: 0.25 µg/mL (≈ 0.356 µM)
- MIC [20]: 1 µg/mL (≈ 1.42 µM)
- MIC [21]: 0.5 µg/mL (≈ 0.712 µM)
- MIC (Escherichia coli EC14): 128 µg/mL (≈ 182 µM)
- MIC [22]: 0.5 µg/mL (≈ 0.712 µM)
- MIC [23]: > 128 µg/mL
- MIC (Escherichia coli TEM): 16 µg/mL (≈ 22.8 µM)
- MIC [24]: 0.5 µg/mL (≈ 0.712 µM)
- ED50 ([25]; C203, po, read-out: ED50 Oral): > 100 mg/kg
- ED50 ([25]; C203, sc, read-out: ED50 Subcutaneous): > 25 mg/kg
